Where “and” joins values, the source holds several entries; their conditions need not be identical. Equal values may be shown once. Entries after “also recorded” stand apart in the source; their conditions may differ. Where a SMILES comes first, the peptide text is derived from it. Where no end group is shown, it is not given here. [ ]: non-standard residue; d: D form. The star is where a group is joined. X2 = CC/C=C\C/C=C\C/C=C\CCCCCCCC(=O)*; Palmitoyl = CCCCCCCCCCCCCCCC(=O)*
Legend:
[1] = Zeta-potential measurement (dynamic light scattering); type: physicochemical; settings: for Zeta Potential / mV: 1 mg/mL, PBS
Protocol: Zeta-potential: 60 µL of the peptides (1 mg mL-1) were diluted in 600 µL, 1 mM KCI solution and placed in a disposable folded capillary cuvette. All zeta-potential measurements were conducted by dynamic light scattering technology (Zetasizer, Malvern Instruments) and in triplicates for each sample. The derived count rate of the zeta potential measurement was used as information on the light scattering intensity and turbidity of the sample as a further indicator for microscopic aggregation.

[2] = Thioflavin T (ThT) fluorescence assay; type: physicochemical; set-up: key to ThT: + = ThT active; - = no ThT fluorescence observed; settings: ThT fluorescence; 1 mg/mL, PBS
Protocol: Transmission electron microscopy (TEM) measurements, Thioflavin (ThT), zeta-potential measurements for fibril characterization were prepared and conducted according to prior art procedures. […] Fibrils were defined as distinct, if no visible structures could be identified in fluorescence and brightfield microscopy. A peptide fibril was considered as ThT-active if the fluorescence intensity was at least twice as strong compared to the control (PBS containing 10% DMSO).

[3] = ATR-FT-IR determination of β-sheet content; type: physicochemical; settings: for β-sheet content / %: peak integration of parallel β-sheet at 1630 cm-1, 2nd derivative of ATR-IR spectra; for β-sheet amount: 1 mg/mL in PBS lyophilized, integral at 1630 cm^-1 relative to 1650-1700 cm^-1
Method in brief: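 Lyophilized fibril samples measured by diamond ATR-FT-IR, 2 cm^-1 resolution, 64 scans averaged. β-sheet content taken from the second-derivative spectrum as the 1630 cm-1 peak integral relative to the 1650-1700 cm-1 integral.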

[4] = TEM of peptide assemblies (fibril formation / assembly); type: physicochemical; settings: for TEM morphology (in words): 1 mg/mL in PBS; for Assembly without hydrophob residue: corresponding peptide without hydrophobic moiety; for Assembly: peptide amphiphile
Method in brief: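 Peptides predissolved in DMSO at 10 mg/mL (stock), diluted in PBS to 650 µM or 1 mg/mL final and incubated 1 d at rt (20–25 °C) to form fibrils. Other concentrations obtained by diluting preformed fibrils; assemblies imaged by TEM.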

[5] = Fluorescence microscopy of ThT-stained fibrils (µm-sized aggregates); type: physicochemical; settings: for fluorescent, µm-sized aggregates (ThT staining): 1 mg/mL stained with 50 µM ThT
Method in brief: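 Fibrils (1 mg mL^-1) mixed 1:9 with 50 µM ThT, giving 0.1 mg mL^-1 stained fibrils on glass. Imaged under 10x air objective with excitation 480/40 nm and emission 527/30 nm. Fibrils called distinct when no visible structures appeared in fluorescence or brightfield.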

HIV-1 = settings: for enhancement of HIV-1 infection / transduction (in words): 6.5 µM, 1.3 µM, 0.26 µM; for Infectivity enhancing N fold at 1.3 µM: relative to virus only;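 on all read-outs here: TZM-bl reporter cells exposed to HIV-1 with peptide fibrils, infection read out as β-galactosidase luminescence, compared with virus alone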
Protocol: HIV-1 Infection Assay with TZM-bl cells: The effect of peptide fibrils on HIV-1 infection was studied via a luminescence assay for β-galactosidase, which was reported by TZM-bl cells upon infection. The HIV-1 infection assay was conducted in three technical replicates and repeated in three independent experiments unless stated otherwise.

HeLa cells = assay: Confocal laser scanning microscopy and degradation study with PA library and HeLa cells; type: cell-based; settings: for association with cellular membranes: 2 µg added to 20.000 HeLa cells, 30 min; for degradability (in words) / Degradability / % (rel. to initial particles > 10 µm^2): HeLa cells; for degradability (in words): 3 days; for Degradability / % (rel. to initial particles > 10 µm^2): 3 d relative to 30 min
Method in brief: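 HeLa cells (20,000/well) got Proteostat-stained PAs (2 µg peptide per 20.000 cells) with Hoechst nuclear stain, 30 min at 37°C, PBS-washed, then held 3 d at 37°C unwashed. Confocal imaging at d0 and d3 counted aggregates >10 µm^2 in 1008 × 1008 µm, three technical replicates. Degradation taken as d3/d0 aggregate number.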

[6] = Zeta-potential measurement (dynamic light scattering); type: physicochemical

| Molecule | Zeta Potential / mV [1] | ThT [2] | β-sheet content / % [3] | TEM morphology (in words) [4] | formation of µm-sized aggregates in aqueous medium / PBS (in words) [5] | enhancement of HIV-1 infection / transduction (in words) (HIV-1) | β-sheet amount [3] | Assembly without hydrophob residue [4] | Assembly [4] | association with cellular membranes (HeLa cells) | degradability (in words) (HeLa cells) | Degradability / % (rel. to initial particles > 10 µm^2) (HeLa cells) | aggregate number decreases / degraded in presence of HeLa cells within 3 days (HeLa cells; d3 relative to d0) | fluorescent, µm-sized aggregates (ThT staining) [5] | enhances infectivity at 1.3 µM concentration, times more efficient compared to virus only infection (HIV-1) | Infectivity enhancing N fold at 1.3 µM (HIV-1) | Zeta-Potential / mV [6] | zeta-potential (in words) [1] | infectivity enhancement at 1.3 µM concentration compared to virus only infection (in words) (HIV-1) | aggregate number increases (HeLa cells; d3 relative to d0) |
| --- | --- | --- | --- | --- | --- | --- | --- | --- | --- | --- | --- | --- | --- | --- | --- | --- | --- | --- | --- | --- |
| VVVAAAKKK-NH2 [P1] | -2.3 ± 0.4 mV | - | 48% | amorphous aggregates; also recorded: non-fibrillar amorphous aggregates | does not form µm-sized aggregates in PBS | inactive |  |  |  |  |  |  |  |  |  |  |  |  |  |  |
| FQFKFKC-NH2 [P2, FQFKFKC-NH2] | +10.1 ± 3.0 mV | - | 46% | Formation of fibrils; also recorded: twisted fibrils | does not form µm-sized aggregates in PBS | inactive |  |  |  |  |  |  |  |  |  |  |  |  |  |  |
| CCCCCCCCCCCCCCCC(=O)N[C@@H](C)C(=O)N[C@@H](CC(C)C)C(=O)N[C@@H](C)C(=O)N[C@@H](C)C(=O)NCC(=O)N[C@@H](CCCCN)C(=O)N[C@@H](CCCCN)C(N)=O [Pat20, C16-ALAAGKK-NH2] (Palmitoyl-ALAAGKK-NH2) |  |  |  | fibrillar morphologies |  |  | 48% | No | Yes | association with cellular membranes | degradable PA | 87% | 87% | fluorescent, µm-sized aggregates | 5 times | 5±1 N fold | 20.2 mV |  |  |  |
| CCCCCCCCCCCCCCCC(=O)N[C@@H](C)C(=O)N[C@@H](CCCCN)C(=O)N[C@@H](C)C(=O)N[C@H](C(=O)NCC(=O)N[C@@H](CCCCN)C(N)=O)C(C)C [Pat31, C16-AKAVGK-NH2] (Palmitoyl-AKAVGK-NH2) |  |  |  | fibrillar morphologies |  |  | 43% | No | Yes | association with cellular membranes | degradable PA | 89% | 89% | fluorescent, µm-sized aggregates | 6 times | 6 N fold and 6±3 N fold | 19.7 mV |  |  |  |
| CC/C=C\C/C=C\C/C=C\CCCCCCCC(=O)N[C@H](C(=O)N[C@H](C(=O)N[C@H](C(=O)N[C@@H](C)C(=O)N[C@@H](C)C(=O)N[C@@H](C)C(=O)N[C@@H](CCCCN)C(=O)N[C@@H](CCCCN)C(=O)N[C@@H](CCCCN)C(N)=O)C(C)C)C(C)C)C(C)C [Pat9] (X2-VVVAAAKKK-NH2) |  |  |  | failed to form fibrils in aqueous medium |  |  |  | No | No |  |  |  |  |  |  | 1±0 N fold |  | almost neutral zeta-potential |  |  |
| VVVAAAEEE-NH2 [P3] | -21.2 ± 1.5 mV | - | 46% | amorphous aggregates; also recorded: non-fibrillar amorphous aggregates | does not form µm-sized aggregates in PBS |  |  |  |  |  |  |  |  |  |  |  |  |  |  |  |
| CCCCCCCCCCCCCCCC(=O)N[C@@H](Cc1c[nH]c2ccccc12)C(=O)N[C@@H](CCC(=O)O)C(=O)N[C@@H](C)C(=O)N[C@@H](CC(C)C)C(=O)N[C@@H](CCCCN)C(=O)N[C@@H](CCCCN)C(N)=O [Pat17, C16-WEALKK-NH2] (Palmitoyl-WEALKK-NH2) |  |  |  | not forming fibrils; also recorded: amorphous aggregate morphology |  | no infectivity enhancement can be observed | 38% | No | No | no association with cellular membranes |  |  |  | fluorescent, µm-sized aggregates |  | 1±0 N fold |  |  | does not enhance infectivity |  |
| CCCCCCCCCCCCCCCC(=O)N[C@@H](C(=O)N[C@@H](C(=O)N[C@@H](C(=O)N[C@H](C)C(=O)N[C@H](C)C(=O)N[C@H](C)C(=O)N[C@H](CCCCN)C(=O)N[C@H](CCCCN)C(=O)N[C@H](CCCCN)C(N)=O)C(C)C)C(C)C)C(C)C [Pat14, C16-vvvaaakkk-NH2] (Palmitoyl-[dV][dV][dV][dA][dA][dA][dK][dK][dK]-NH2) |  |  |  | fibrillar morphologies |  |  | 49% | No | Yes | association with cellular membranes | is not degraded; also recorded: cannot be degraded; also recorded: non-degradable PA | -116% |  | fluorescent, µm-sized aggregates | 7 times | 7±1 N fold |  |  |  | 116% |
| CCCCCCCCCCCCCCCC(=O)N[C@@H](C)C(=O)NCC(=O)NCC(=O)N[C@@H](CCCNC(=N)N)C(=O)N[C@H](C(=O)N[C@@H](CCCCN)C(N)=O)C(C)C [Pat18, C16-AGGRVK-NH2] (Palmitoyl-AGGRVK-NH2) |  |  |  | fibrillar morphologies |  |  | 56% | No | Yes |  |  |  |  | no fluorescent, µm-sized aggregates | 3 times | 3±1 N fold | 15.9 mV |  |  |  |
